Measured values: US20160077081A1, “METHOD FOR A CELL-BASED DRUG SCREENING ASSAY AND THE USE THEREOF” (QGEL SA, priority 2013, published 2016)

Legend:
[1] = tested on: Colon cancer HCT 116 cells; assay: Image-based analysis of cancer cell spheroid size in a three-dimensional matrix after early-/late-stage treatment; details: early-stage treatment, IC50 and 1 mM
Procedure: In FIG. 3B an image-based analysis quantifying the distribution of diameter sizes of cell colonies, specifically cancer spheroids measured immediately after “early-” and “late-stage” treatment is shown as an example of a selection of drugs from FIG. 3 A at a drug concentration of 10 μM. Filled curves correspond to “hits” and unfilled curves are “no Hits” as determined using metabolic readouts at the ends of “early stage” and “late-stage” (Positive control: Cells treated with copper sulphate; negative control; Cells treated with DMSO).
In FIG. 4 the determination of the half maximal inhibitory concentration (IC50) as an Alamar Blue® readout of selected “Hits” in FIG. 2, example 5-Fluorouracil (5-FU), on colonies of Colon cancer HCT 116 cells is shown. The readout was performed immediately after “early-” and “late-stage” treatments of cells in a three-dimensional matrix. […] The IC50 curves obtained with two-dimensional reference assays are often similar to “early-stage” treatment conditions of the present invention (three-dimensional). This is also shown in the drug screening correlation of most “Hits” observed with the two assay methods in FIG. 3 A (upper panel). In FIG. 4 B an image-based analysis of cancer cell spheroids grown in a three-dimensional matrix after “early-” and “late-stage” treatment at selected drug concentrations, IC50 and 1 mM, are shown.

[2] = tested on: Colon cancer HCT 116 cells; assay: Alamar Blue metabolic readout on colonies of HCT 116 cells in a three-dimensional matrix, early-/late-stage treatment schedule; type: cell-based; details: for Hit in drug screening (metabolic readout, Alamar Blue): 10 μM
Procedure: An example is given comprising an “early-” and a “late-stage” drug treatment for cells grown in three-dimensional matrices. Conditions of different cancer stages are identified, derived from profiling assays, as in FIG. 1, and schedules for drug screening are determined accordingly. Here, different cancer stages for cells cultured in three-dimensional matrices are determined as “early-” and “late-stage” cancer treatment.
The “early-stage” comprises two time points for readout. The first point of time at day seven is at the end of the drug treatment, whereas the second point in time at day eleven follows a drug-free recovery phase. The “late-stage” comprises two time points for readout. The first point in time at day seventeen is at the end of a second (independent from “early-stage”) drug treatment phase. The second point in time at day twenty-one follows a drug-free recovery phase. Measurements at additional points in time can be performed before the start of treatment and/or after different drug-free recovery phases.
In contrary, the “late-stage” illustrates existence of larger spheroids with a diameter of 155 μm, low cell proliferation (shown in FIG. 9), and presence of hypoxic condition (FIG. 1C). In both cases, the readouts are performed immediately after treatment end to test immediate drug efficacy, and after a four-day drug-free period to test recurrence of “mini-tumour” growth and/or retarded drug effects as the case observed with Gemcitabine (FIG. 10).
As an example for “Hit” generation a selection of drugs from a commercially available drug library (Prestwick) is used. In A) the effect of sixty drugs on cancer cells measured by metabolic readout (Alamar Blue®) is shown. […]
In FIG. 4 the determination of the half maximal inhibitory concentration (IC50) as an Alamar Blue® readout of selected “Hits” in FIG. 2, example 5-Fluorouracil (5-FU), on colonies of Colon cancer HCT 116 cells is shown. The readout was performed immediately after “early-” and “late-stage” treatments of cells in a three-dimensional matrix. […]

[3] = tested on: Pancreatic Panc-1 cancer cells; assay: Alamar Blue readout on Panc-1 cells in three-dimensional matrices, late-stage treatment with or without drug-free recovery; type: cell-based
Description: The “early-stage” comprises two time points for readout. The first point of time at day seven is at the end of the drug treatment, whereas the second point in time at day eleven follows a drug-free recovery phase. The “late-stage” comprises two time points for readout. The first point in time at day seventeen is at the end of a second (independent from “early-stage”) drug treatment phase. The second point in time at day twenty-one follows a drug-free recovery phase. Measurements at additional points in time can be performed before the start of treatment and/or after different drug-free recovery phases. […] The dose-dependant efficacy profiles for “late-stage” treatment with Gemcitabine on pancreatic cancer cells culture in three-dimensional matrices were measured according to Alamar Blue® readout before and after the drug-free recovery period of four to seven, days.

[4] = tested on: Pancreatic Panc-1 cancer cells; assay: Two-dimensional reference assay on pancreatic cancer cells; type: cell-based
Procedure: For reference two-dimensional assays, cells are normally tested with drugs within the logarithmic proliferations phase between day one to four (FIG. 9). […] The dose-dependant efficacy profiles for “late-stage” treatment with Gemcitabine on pancreatic cancer cells culture in three-dimensional matrices were measured according to Alamar Blue® readout before and after the drug-free recovery period of four to seven, days.

| Potency (IC50 shift) from early to late treatment ([2]; late-stage versus early-stage treatment, readout immediately after treatment, three-dimensional matrix) | Compound | Inhibition of spheroid growth [1] | Hit in drug screening (metabolic readout, Alamar Blue) ([2]; triplicate, selected Hit of the screening campaign, stage not stated) | Hit in drug screening (metabolic readout, Alamar Blue) ([2]; late-stage treatment, three-dimensional matrix) | Cell growth inhibition (dose-dependent efficacy, Alamar Blue) ([3]; measured after drug-free recovery period of four to seven days) | Activity (dose-dependent efficacy, Alamar Blue) ([3]; measured immediately after the treatment) | Activity (dose-dependent efficacy) [4] |
| --- | --- | --- | --- | --- | --- | --- | --- |
| less potent | O=c1[nH]cc(F)c(=O)[nH]1 [5-FU, 5-Fluorouracil] | strong inhibition | Hits | no Hit |  |  |  |
|  | Nc1ccn([C@@H]2O[C@H](CO)[C@@H](O)C2(F)F)c(=O)n1 [Gemcitabine] |  |  |  | potent cell growth inhibitor | not shown to be active | not shown to be active |
